Key:
cynomolgus PD-L1 = details: flow staining of SDGF-PDL1B1G1-expressing cells
[1] = 10 mM DTT vs PBS
[2] = ref [58]; cited from earlier work
PC3 tumors [3] = details: 14 days after treatment, 1 nmol + ATC (fig. S10)
murine PD-L1 = details: ref [47]; cited from earlier work
PC3 tumors [4] = details: cohort 2, ATC + durvalumab, 1 or 0.1 nmol/dose

For `CC[C@H](C)[C@@H]1NC(=O)[C@H](CCCNC(=N)N)NC(=O)[C@H](CCC(=O)O)NC(=O)[C@H](C)NC(=O)[C@@H]2CSSC[C@H](NC(=O)[C@H](Cc3c[nH]cn3)NC(=O)[C@H](C)NC(=O)[C@H](CCCNC(=N)N)NC(=O)CNC(=O)[C@H]([C@@H](C)CC)NC(=O)[C@H]([C@@H](C)O)NC(=O)[C@H](Cc3ccc(O)cc3)NC(=O)[C@H](CO)NC(=O)[C@H](CCCCN)NC1=O)C(=O)N[C@@H](CO)C(=O)NCC(=O)N[C@@H](CCC(N)=O)C(=O)N[C@@H](Cc1ccc(O)cc1)C(=O)N[C@@H](Cc1ccccc1)C(=O)N[C@@H](CC(=O)O)C(=O)N[C@@H](C(C)C)C(=O)N[C@@H](Cc1c[nH]c3ccccc13)C(=O)N[C@@H](CCCCN)C(=O)N[C@H]1CSSC[C@H](NC(=O)[C@H](Cc3c[nH]cn3)NC(=O)[C@H](C(C)C)NC(=O)[C@H](CCCCN)NC(=O)[C@@H](NC(=O)[C@H](CC(=O)O)NC(=O)[C@H](CCC(=O)O)NC(=O)[C@H](CCC(=O)O)NC(=O)[C@H](CO)NC(=O)CN)CSSC[C@@H](C(=O)N[C@@H](C)C(=O)N[C@@H](C)C(=O)N3CCC[C@H]3C(=O)O)NC(=O)[C@H](Cc3c[nH]cn3)NC(=O)[C@H](CC(=O)O)NC(=O)[C@H](CC(C)C)NC1=O)C(=O)N[C@@H](C(C)C)C(=O)N[C@@H](CCCCN)C(=O)N[C@@H](CCC(=O)O)C(=O)N[C@@H](Cc1c[nH]c3ccccc13)C(=O)N[C@@H](C)C(=O)N[C@@H](C)C(=O)N[C@@H](Cc1ccc(O)cc1)C(=O)N[C@@H](CCCCN)C(=O)N[C@@H](C)C(=O)N2` [PDL1B1G1], the “binding to cynomolgus PD-L1 relative to murine PD-L1” value (cynomolgus PD-L1) was “stronger than seen with murine PD-L1” and the “RP-HPLC mobility shift upon reduction” value [1] was “substantial mobility shift”.
In the case of atezolizumab, the linked adverse effect [2] is listed as “Type 1 diabetes has been reported”.
In the case of durvalumab, the “ATC infiltration and activation in tumor (human CD8, granzyme B)” value (PC3 tumors [3]) is listed as “recruitment of trace numbers of ATCs infiltrating the tumor”, the murine cross-reactivity (murine PD-L1) is listed as “non-murine-cross-reactive” and the tumor growth suppression (PC3 tumors [4]) is listed as “No tumor growth suppression”.
